Tests used:
Type in all cases: cell-based
[1] = Cytotoxicity on normal cell line NIH 3T3 (cell counting kit-8, WST-8); conditions: mouse, NIH 3T3 cells (embryonic fibroblast cell line); NIH 3T3 normal cell line
Experimental: (§1) For the normal cell lines, five cell lines, VERO (African green monkey kidney cell line), HFL-1 (human embryonic lung cell line), L929 (NCTC clone 929, mouse fibroblast cell line), NIH 3T3 (mouse embryonic fibroblast cell line), and CHO-K1 (Chinese hamster overy cell line) were used.
(§2) For the cytotoxicity, all the cells were seeded at 1×10^4, and for a generalized test for investigating cell viability, the CC50 value, which is the concentration of a compound killing 50% of cells, was measured by cell counting kit-8 assay using tetrazolium salt named WST-8 displaying a pale yellow color.

[2] = Cytotoxicity on normal cell line CHO-K1 (cell counting kit-8, WST-8); conditions: Chinese hamster, CHO-K1 cells (ovary cell line)
Experimental: as §1, §2

[3] = Cytotoxicity on normal cell line VERO (cell counting kit-8, WST-8); conditions: African green monkey, VERO cells (kidney cell line), read-out: Cytotoxicity CC50 (μM), ERO
Experimental: as §1, §2

H460 cells = test: MTT cytotoxicity on lung cancer cells (H460); conditions: medium with 0.5% serum
Experimental: H460 cells were dispensed in medium containing 0.5% serum at 1×10^4 per well, and were treated with the compounds. MTT solution (5 mg/mL) was diluted 10-fold, and dispensed at 10 μl per well, followed by culturing for 30 minutes. The precipitate was dissolved in 100 μl of DMSO, and the absorbance was measured using a microplate reader (Sunrise, TECAN) at a wavelength of […].

[4] = Cytotoxicity on normal cell line HFL-1 (cell counting kit-8, WST-8); conditions: human, HFL-1 cells (embryonic lung cell line); HFL-1 normal cell line; read-out: Cytotoxicity CC50 (μM), FL-1
Experimental: as §1, §2

[5] = Cytotoxicity on normal cell line L929 (cell counting kit-8, WST-8); conditions: mouse, L929 cells (NCTC clone 929, fibroblast cell line)
Experimental: as §1, §2

| SMILES | CC50 [1] | CC50 [2] | CC50 [3] | Inhibition of proliferation of H460 cells (MTT, FIG. 1) (H460 cells) | CC50 [4] | CC50 [5] |
| --- | --- | --- | --- | --- | --- | --- |
| Cc1ccnc(NC(=O)/C=C\C(=O)N2CCOCC2)c1 [Example 1-20, (Z)—N-(4-methylpyridin-2-yl)-4-morpholino-4-oxobut-2-enamide] | > 100 µM | > 100 µM | 100 µM | significantly inhibited the proliferation of H460 cells in a dose-dependent manner | 100 µM | 100 µM |
| Cc1ccnc(NC(=O)/C=C\C(=O)N2CCCCC2)c1 [Example 1-14, (Z)—N-(4-methylpyridin-2-yl)-4-oxo-4-(piperidin-1-yl)but-2-enamide] |  |  |  | significantly inhibited the proliferation of H460 cells in a dose-dependent manner |  |  |

From patent US20160152607A1, “MALEIC ACID DERIVATIVE, PRODUCTION METHOD FOR SAME, AND ANTI-CANCER COMPOSITION COMPRISING SAME” (Medicinal Bioconvergence Research Center, priority 2013, published 2016)
